Experimental data taken from patent publication US6867305B2, “Synthesis of epothilones, intermediates thereto and analogues thereof” (Sloan-Kettering Institute for Cancer Research, priority 1996, dated 2005).
Several values for one entry are separate records, joined by “and”; a condition that tells them apart may be missing. Equal values may be shown once.

Key:
[1] = system: MCF-7/Adr mammary xenograft; assay: Human tumor xenograft in nude mice; type: in vivo
[2] = Stability in plasma in vitro (HPLC); type: in vitro ADME, dog; details: 5 μg/mL, 37 degree
Experimental: (§1) Stability of dEpoF in animal plasmas. A HPLC method is set up using a NovaPak C 18, 3.9×300 mm column with a mobile phase of 50% acetonitrile in 50 mM potassium dihydrogen phosphate with 0.01% triethylamine at a flow rate of 0.8 ml/min. dEpoF is monitored at a wavelength of 260 nm and has a retention time of about 10 min. The plasma stability is performed with mouse plasma and dog plasma purchased from Pel-Freeze and human plasma from the blood center in MSKCC. A small amount of dEpoF was dissolved in 50% methanol/water at a concentration of 500 μg/mL. An aliquot of 20 μL is then spiked to 2 mL of plasma to a final plasma concentration of 5 μg/mL. The plasma samples were kept at 37 degree. At the time point, 200 μL of the plasma was removed and added to 400 μL of methanol to precipitate the plasma protein. Twenty μL of the supernatant was analyzed by HPLC without further modification. dEpoF disappears rapidly with half life about one hour in the commercial frozen mouse plasma alone, but stable in dog and human plasma.

CCRF-CEM/VBL = assay: Relative potency in vitro, very highly resistant MDR cells; type: cell-based, human; details: for IC50: Homo sapiens, CCRF-CEM, read-out: CCRF-CEM/VBL IC50 in μM; for Fold of Resistance (B)/(A): [IC50 CCRF-CEM/VBL]/[IC50 CCRF-CEM]
Experimental: The cells were cultured at an initial density of 2-5×10^4 cells per ml. They were maintained in a 5% CO2-humidified atmosphere at 37° C. in RPMI mediun 1640 (GIBCO/BRL) containing penicillin (100 units/ml), streptomycin (100 μg/ml) (GIBCO/BRL), and 5% heat-inactivated fetal bovine serum. For solid tumor cells growing in a monolayer (such as MCF-7/Adr), cytotoxicitiy of the drug was determined in 96-well microtiter plates by using the sulforhodamine B method as described by Skehan et al (23) for measuring the cellular protein content. For cells that were grown in suspension (such as CCRF-CEM and its sublines), cytotoxicitiy was measured by using the 2,-3-bis(2-methoxy-4-nitro-5-sulfophenyl)-5carboxanilide)-2H terazodium hydroxide (XTT)-microculture tetrazonium method (24) in duplicate in 96-well microtiter plates. For both methods, the absorbance of each well was measured with a microplate reader (EL-340, Bio-Tek, Burlington, Vt.). Each run entailed six or seven concentrations of the tested drugs. Dose-effect relationship data were analyzed with the median-effect plot (25) by using a previously described computer program (26).

[3] = Stability in plasma in vitro (HPLC); type: in vitro ADME, mouse
Experimental: (FIG. 44). […] (FIG. 44).
(§2) Human blood plasma or nude mice plasma (300 μl) containing dEpoB (0.05-20 μg/ml) was added 30 μl of methanol and mixed for 2 min and then added 300 μl of methanol. The centrifuge supernatant was used for high performance liquid chromatography (HPLC). Nova-pak C18 column (15 cm) was used, with 50% acetonitrile/water with 0.8% triethylamine and 0.2% phosphoric acid as mobile phase. UV absorbance at 250 nm was measured.
as §1, with “At the time point, 200 μL of the plasma was removed and added to 400 μL of methanol to precipitate the plasma protein.” left out

tubulin = assay: Tubulin-binding / tubulin polymerization assay; type: biochemical
[4] = system: Human lung carcinoma A549 cells; details: A549 cells exposed to IC50-IC90: VBL 14.3 months, paclitaxel and adriamycin 21.3 months, dEpoB 21.4 months
Excerpt: Repeated exposure of human lung carcinoma A549 cells to sublethal concentrations of antitumor agents may lead to the development of drug resistance.
Every several weeks, cells were harvested for the dose-effect analysis to determine their folds of resistance (using SRB protein staining assay) based on comparing the IC50 value with the IC50 value of the untreated parent cells. Trypsinized/washed cells were used for propagating the cell lineage.

[5] = Pharmacokinetics in beagle dogs; type: in vivo; details: male, dog, plasma, intravenous, 6 mg/kg, 10-min i.v. infusion
Experimental: (§3) dEpoB at doses of 2, 6, 12 and 20 mg/kg, were given to male beagle dogs (11.2-14 kg) via i.v. infusion. The infusion volume was 1 ml/kg for 10 min using the Harvard PHD2000 pump (Harvard Apparatus). dEpoB was formulated in Cremophor 3%, ethanol 3%, propyleneglycol 40% and 5% glucose 54%. The animal was pretreated at −30 min with Benadryl 5 mg/kg, i.v.; cimetidine 5 mg/kg i.m.; and dexamethasone 1 mg/kg, i.e. to minimize allergic reactions due to Cremophor administration.
Pharmacokinetic studies were also carried out for of dEpoB in beagle dogs at 6 mg/kg (120 mg/m^2 body surface), with 10-min i.v. infusion. Serial blood samples were collected in 5 ml heparinized tubes intermittently from-15 min to 24 hours. Plasma concentrations of dEpoB were determined by HPLC as described in methods.
as §2

[6] = Toxicity in beagle dogs, 10-min i.v. infusion; type: in vivo, beagle dog
Experimental: as §3
At 12 mg/kg. […] The body-weight slowly recovered in 2-3 weeks. […] There was a gross abnormality (reddish discoloration) of the intestinal mucosa from duodenum to the ileum. The small intestines contained blood tinged mucinous materials. […] Necrosis of intestinal mucosal epithelium with crypt cells most severely affected at this lethal dose.

B16 Melanoma = type: in vivo, murine; details: mouse, in vivo
[7] = dEpoB 30 mg/kg, Taxol 24 mg/kg, Q2Dx5, 6-hr i.v. infusion

CC(=O)O[C@H]1C(=O)[C@@]2(C)[C@H]([C@H](OC(=O)c3ccccc3)[C@]3(O)C[C@H](OC(=O)[C@H](O)[C@@H](NC(=O)c4ccccc4)c4ccccc4)C(C)=C1C3(C)C)[C@]1(OC(C)=O)CO[C@@H]1C[C@@H]2O [Taxol, paclitaxel, reference compound]
Tumor Disappearance [1, 7]: 0/4

C/C1=C/C[C@@H](/C(C)=C/c2csc(CO)n2)OC(=O)C[C@H](O)C(C)(C)C(=O)[C@H](C)[C@@H](O)[C@@H](C)CCC1 [dEpoF, 12,13-Desoxyepothilone F]
stability in dog plasma [2]: stable | IC50 (CCRF-CEM/VBL): 0.287 µM | potency relative to dEpoB (times less potent) (CCRF-CEM/VBL; MDR CCRF-CEM/VBL cells): 4.5 × | Fold of Resistance (B)/(A) (CCRF-CEM/VBL): 33.6 x | half life in mouse plasma ([3]; commercial frozen mouse plasma, 5 μg/mL, 37 degree): about one | tubulin-binding activity retained relative to dEpoB (tubulin): 90%

C/C1=C/C[C@@H](/C(C)=C/c2csc(C)n2)OC(=O)C[C@H](O)C(C)(C)C(=O)[C@H](C)[C@@H](O)[C@@H](C)CCC1 [dEpoB, 12,13-desoxyepothilone B]
fold resistance developed to the drug after repeated exposure [4]: 21 fold | concentration at 24 hr ([5]; read-out: plasma concentration at the end of 24-hr collection): 45 ng/mL and 92 nM | half-life ([5]; read-out: α-phase t1/2 (converted)): 1.9 h | half-life ([5]; read-out: β-phase t1/2 (converted)): 21 h | IC50 (CCRF-CEM/VBL): 0.637 µM | Fold of Resistance (B)/(A) (CCRF-CEM/VBL): 8.6 x | Lowest Average Tumor Size (T/C) [1, 7]: 0.11 | Tumor Disappearance [1, 7]: 0/3 | Therapeutic Effect Rank Order ([1]; i.p., ref 19 (Table 5)): dEpoB>Camptothecin>Adriamycin>Taxol | Therapeutic Effect Rank Order ([1]; i.v. infusion): dEpoB>>VP-16, Taxol>VBL, Adriamycin | half-life ([3]; nude, mouse, plasma, nude mice plasma, HPLC, read-out: t1/2 in nude mice plasma in vitro): ~0.333 h | clinical signs ([6]; 12 mg/kg): moderate diarrhea (without blood) | decrease in white blood cell (WBC) counts ([6]; 12 mg/kg): 13% | drop in body-weight on day 3 ([6]; 12 mg/kg): 1.3 kg | histopathology of 28 organs or tissues ([6]; 12 mg/kg): No significant histopathologic lesions | platelet counts, ALT, AST ([6]; 12 mg/kg): No significant changes | WBC on day 3 ([6]; 20 mg/kg): 0.6 k/μl | body-weight loss on day 2 ([6]; 20 mg/kg): 0.9 kg | body-weight loss on day 3 ([6]; 20 mg/kg): 3.6 kg | increase in ALT and AST by day 4 ([6]; 20 mg/kg): 3-6 fold | lethality ([6]; 20 mg/kg): expired on day 4 | clinical signs on day 2 ([6]; 20 mg/kg i.v.): severe bloody diarrhea and dehydration | toxicity ([6]; 2 or 6 mg/kg (40 and 120 mg/m^2)): No significant toxicity | Therapeutic Effect Rank Order (B16 Melanoma): dEpoB>Taxol>>EpoB
